# Columns and labels:
# [1] = tested on: Phytophthora infestans; experiment: whole plant or invertebrate; assay type: in vivo; settings: in Solanum lycopersicum, foliar, read-out: control of Phytophthora infestans
# [2] = tested on: Monographella nivalis (Microdochium nivale); experiment: Monographella nivalis (Microdochium nivale)/Liquid Culture (Foot Rot Cereals); assay type: cell-based; settings: liquid culture, compared to untreated control
# Outline: (§1)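 Conidia from cryogenic storage were mixed directly into potato dextrose broth, then added to microtiter wells already holding the test compound dissolved in DMSO. Fungal growth in liquid culture was then assessed.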
# [3] = tested on: Plasmopara viticola; experiment: whole plant or invertebrate; assay type: in vivo; settings: foliar, read-out: control of Plasmopara viticola
# [4] = tested on: Botryotinia fuckeliana (Botrytis cinerea); experiment: Botryotinia fuckeliana (Botrytis cinerea)/Liquid Culture (Gray Mould); assay type: cell-based; settings: liquid culture, compared to untreated control
# Protocol: Conidia of the fungus from cryogenic storage are directly mixed into nutrient broth (Vogels broth). After placing a (DMSO) solution of test compound into a microtiter plate (96-well format), the nutrient broth containing the fungal spores is added.
# [5] = tested on: Mycosphaerella graminicola (Septoria tritici); experiment: Mycosphaerella graminicola (Septoria tritici)/Liquid Culture (Septoria Blotch); assay type: cell-based; settings: Zymoseptoria tritici; 20 ppm; liquid culture; compared to untreated control
# Outline: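 Conidia from cryogenic storage mixed into potato dextrose broth and added to microtiter wells already holding DMSO solutions of test compound. Activity expressed as percentage disease control.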
# [6] = tested on: Glomerella lagenarium (Colletotrichum lagenarium); experiment: Glomerella lagenarium (Colletotrichum lagenarium)/Liquid Culture (Anthracnose); assay type: cell-based; settings: Colletotrichum orbiculare, liquid culture, compared to untreated control
# [7] = tested on: Mycosphaerella arachidis (Cercospora arachidicola); experiment: Mycosphaerella arachidis (Cercospora arachidicola)/Liquid Culture (Early Leaf Spot); assay type: cell-based; settings: liquid culture, compared to untreated control
# Outline: as §1
# [8] = tested on: Magnaporthe grisea (Pyricularia oryzae); experiment: whole plant or invertebrate; assay type: in vivo; settings: foliar, read-out: control of Magnaporthe grisea
# [9] = tested on: Puccinia recondita f. sp. tritici; experiment: Puccinia recondita f. sp. tritici/Wheat/Leaf Disc Curative (Brown Rust); assay type: in vivo; settings: foliar, wheat leaf disc curative, compared to untreated control
# Outline: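 Curative leaf-disc test on wheat cv. Kanzler segments on agar, spore-inoculated and kept dark at 19° C, 75% rh; formulated compound in water applied 1 day after inoculation. Incubated at 19° C, 75% rh, 12 h light/12 h dark; percent disease control versus untreated scored 6-8 days after application.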
# [10] = tested on: Pythium ultimum; experiment: Pythium ultimum/Liquid Culture (Seedling Damping Off); assay type: cell-based; settings: Globisporangium ultimum, liquid culture, compared to untreated control
# Protocol: Mycelia fragments and oospores of a newly grown liquid culture of the fungus are directly mixed into nutrient broth (PDB potato dextrose broth). After placing a (DMSO) solution of test compound into a microtiter plate (96-well format), the nutrient broth containing the fungal mycelia/spore mixture is added.
# [11] = tested on: Puccinia recondita f. sp. tritici; experiment: Puccinia recondita f. sp. tritici/Wheat/Leaf Disc Preventative (Brown Rust); assay type: in vivo; settings: foliar, 200 ppm, wheat leaf disc preventative, compared to untreated control, read-out: control of Puccinia recondita f. sp. tritici
# [12] = tested on: Phaeosphaeria nodorum (Septoria nodorum); experiment: Phaeosphaeria nodorum (Septoria nodorum)/Wheat/Leaf Disc Preventative (Glume Blotch); assay type: in vivo; settings: Parastagonospora nodorum, foliar, wheat leaf disc preventative, compared to untreated control
# Outline: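 Wheat cv. Kanzler leaf discs on agar were sprayed with formulated compound diluted in water and inoculated with P. nodorum spores 2 days later. Discs kept at 20 °C, 75% rh, 12 h light/dark; percent disease control versus untreated scored 5–7 days after application.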
# [13] = tested on: Blumeria graminis f. sp. tritici (Erysiphe graminis f. sp. tritici); experiment: Blumeria graminis f. sp. tritici/Wheat/Leaf Disc Preventative (Powdery Mildew on Wheat); assay type: in vivo; settings: foliar, wheat leaf disc preventative, compared to untreated control
# Outline: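 Wheat cv. Kanzler leaf segments on agar sprayed with formulated compound, inoculated with powdery mildew 1 day later and held at 20° C, 60% rh (24 h dark, then 12 h light/12 h dark). Percent disease control versus untreated scored 6-8 days after application.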
# [14] = tested on: Phakopsora pachyrhizi; experiment: Phakopsora pachyrhizi/Soybean/Preventative (Soybean Rust); assay type: in vivo; settings: foliar, 288 h, 200 ppm, soybean leaf disc preventative, compared to untreated control, read-out: control of Phakopsora pachyrhizi
# [15] = tested on: Alternaria solani; experiment: Alternaria solani/Tomato/Leaf Disc (Early Blight); assay type: in vivo; settings: foliar, tomato leaf disc, compared to untreated control
# Outline: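 Tomato cv. Baby leaf disks on agar were sprayed with diluted formulated compound and inoculated with spores 2 days later. Incubation at 23° C./21° C. day/night, 80% rh, 12/12 h light; percent disease control versus untreated scored 5-7 days after application.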
# [16] = tested on: Sclerotinia sclerotiorum; experiment: Sclerotinia sclerotiorum/Liquid Culture (Cottony Rot); assay type: cell-based; settings: liquid culture, compared to untreated control
# Protocol: Mycelia fragments of a newly grown liquid culture of the fungus are directly mixed into nutrient broth (PDB potato dextrose broth). After placing a (DMSO) solution of test compound into a microtiter plate (96-well format) the nutrient broth containing the fungal material is added.
# [17] = tested on: Thanatephorus cucumeris (Rhizoctonia solani); experiment: Thanatephorus cucumeris (Rhizoctonia solani)/Liquid Culture (Foot Rot, Damping-Off); assay type: cell-based; settings: liquid culture, compared to untreated control
# Protocol: Mycelia fragments of a newly grown liquid culture of the fungus are directly mixed into nutrient broth (PDB potato dextrose broth). After placing a (DMSO) solution of the test compounds into a microtiter plate (96-well format), the nutrient broth containing the fungal material is added.
# [18] = tested on: Pyrenophora teres; experiment: Pyrenophora teres/Barley/Leaf Disc Preventative (Net Blotch); assay type: in vivo; settings: foliar, 200 ppm, barley leaf disc preventative, compared to untreated control, read-out: control of Pyrenophora teres
# Outline: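 Formulated compound, diluted in water, sprayed onto barley cv. Hasso leaf segments on agar; spore suspension inoculation followed 2 days after application. Results expressed as percentage disease control.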
# [19] = Photostability assay (Atlas Suntest); assay type: physicochemical; settings: Suntest 750 W/m^2, spotted on microscope slides
# Protocol: The testing method to measure the photostability data of each compound in table is D1 is as specifically described below. The objective of the photostability assay was to determine the stability of the individual test compounds in a strictly controlled and reproducible environment allowing a comparison of their photostability.
# Method: Compounds were dissolved in methanol (HPLC grade) to give 1 g/L stock solutions. Compound stock solution (2 μl) was spotted onto microscope slides in a 3D printed holder and put into the Atlas Suntest. The spectral output power of the Suntest was set to 750 W/m^2, which is considered typical of the daily maximum (noon) irradiance level on a very bright British Summer day. At specific time points slides were removed from the Suntest and placed in 4D vials. Wash solvent made up of 50:40:10 H2O:MeCN:THF (1 mL) is then added to the vials and whirlimixed. The resulting solution is then subsampled to an HPLC vial to be analysed. A Waters UPLC system with Photodiode Array was used with a Waters reverse phase column (BEH C18, 100×2.1 mm×1.7 μm) and acetonitrile (HPLC grade) acidified water (0.2% formic acid) mobile phase at a flow rate of 0.6 mL/min. Peak detection was at the optimum wavelength and peak areas were used for quantification
# Initial and subsequent measurements of peak area attributable to the test compound were used to provide a % parent remaining at 3 hours.
Structure (SMILES),pest or weed control at 200 ppm [1],inhibition of growth at 20 ppm [2],pest or weed control at 200 ppm [3],inhibition of growth at 20 ppm [4],inhibition of growth at 20 ppm [5],inhibition of growth at 20 ppm [6],inhibition of growth at 20 ppm [7],pest or weed control at 200 ppm [8],pest or weed control at 200 ppm [9],inhibition of growth at 20 ppm [10],pest or weed control at 200 ppm [11],pest or weed control at 200 ppm [12],pest or weed control at 200 ppm [13],melting point,pest or weed control at 200 ppm [14],pest or weed control at 200 ppm [15],inhibition of growth at 20 ppm [16],inhibition of growth at 20 ppm [17],pest or weed control at 200 ppm [18],% Parent Remaining @ 3 hrs [19]
"CO/C=C(\Oc1cc(-n2ccc(C3CCCC3)n2)ccc1C)C(=O)OC [Compound E-5, methyl (Z)-2-[5-(3-cyclopentylpyrazol-1-yl)-2-methyl-phenoxy]-3-methoxy-prop-2-enoate]",≥ 80%,≥ 80%,≥ 80%,≥ 80%,≥ 80%,≥ 80%,≥ 80%,≥ 80%,≥ 80%,≥ 80%,≥ 80%,,,,,,,,,
"CO/C=C(\Oc1cc(-n2ccc(C(C)C)n2)cc(F)c1C)C(=O)OC [Compound E-7, methyl (Z)-2-[3-fluoro-5-(3-isopropylpyrazol-1-yl)-2-methyl-phenoxy]-3-methoxy-prop-2-enoate]",≥ 80%,≥ 80%,≥ 80%,,≥ 80%,≥ 80%,≥ 80%,≥ 80%,≥ 80%,≥ 80%,≥ 80%,≥ 80%,≥ 80%,114 to 116 °C,≥ 50%,,,,,
"CO/C=C(\Oc1cc(-n2ccc(C(C)C)n2)cc(OC)c1C)C(=O)OC [Compound E-21, methyl (Z)-2-[5-(3-isopropylpyrazol-1-yl)-3-methoxy-2-methyl-phenoxy]-3-methoxy-prop-2-enoate]",≥ 80%,≥ 80%,≥ 80%,,≥ 80%,≥ 80%,≥ 80%,,≥ 80%,≥ 80%,≥ 80%,,,90 to 92 °C,,≥ 80%,,,,
"CO/C=C(\Oc1cc(-n2ccc(C(C)C(F)(F)F)n2)ccc1C)C(=O)OC (centres unmarked) [Compound E-23, methyl (Z)-3-methoxy-2-[2-methyl-5-[3-(2,2,2-trifluoro-1-methyl-ethyl)pyrazol-1-yl]phenoxy]prop-2-enoate]",≥ 80%,≥ 80%,≥ 80%,≥ 80%,≥ 80%,≥ 80%,≥ 80%,,≥ 80%,,≥ 80%,,,119 to 122 °C,,,≥ 80%,≥ 80%,,
"CO/C=C(\Oc1cc(-n2ccc(C3CCCCC3)n2)ccc1C)C(=O)OC [Compound E-36, methyl (Z)-2-[5-(3-cyclohexylpyrazol-1-yl)-2-methyl-phenoxy]-3-methoxy-prop-2-enoate]",≥ 80%,≥ 80%,≥ 80%,≥ 80%,≥ 80%,≥ 80%,≥ 80%,≥ 80%,≥ 80%,,≥ 80%,≥ 80%,,85 to 89 °C,,≥ 80%,≥ 80%,≥ 80%,≥ 80%,
"CO/C=C(\Oc1cc(-n2ccc(C3(F)CC3)n2)ccc1C)C(=O)OC [Compound E-67, methyl (Z)-2-[5-[3-(1-fluorocyclopropyl)pyrazol-1-yl]-2-methyl-phenoxy]-3-methoxy-prop-2-enoate]",≥ 80%,≥ 80%,≥ 80%,,≥ 80%,≥ 80%,≥ 80%,,≥ 80%,,≥ 80%,≥ 80%,≥ 80%,128 to 131 °C,,≥ 80%,≥ 80%,≥ 80%,≥ 80%,37%
"CO/C=C(\Oc1cc(-n2ccc(C(C)(C)C)n2)ccc1C)C(=O)OC [Compound E-103, methyl (Z)-2-[5-(3-tert-butylpyrazol-1-yl)-2-methyl-phenoxy]-3-methoxy-prop-2-enoate]",≥ 80%,≥ 80%,≥ 80%,≥ 80%,≥ 80%,≥ 80%,≥ 80%,≥ 80%,≥ 80%,≥ 80%,≥ 80%,≥ 80%,≥ 80%,,≥ 50%,,,,,
"CO/C=C(\Oc1cccc(-n2ncc(C3CC3)n2)c1)C(=O)OC [Compound F-9, methyl (Z)-2-[3-(4-cyclopropyltriazol-2-yl)phenoxy]-3-methoxy-prop-2-enoate]",≥ 80%,≥ 80%,≥ 80%,,≥ 80%,≥ 80%,≥ 80%,,≥ 80%,≥ 80%,≥ 80%,,≥ 80%,,,,,,,

# Source: patent US12043600B2, “Microbiocidal compounds” (SYNGENTA CROP PROTECTION AG, priority 2018, dated 2024)
